Patent US20240116985A1, “STAPLED PEPTIDES AND METHODS THEREOF” (priority 2020, published 2024)
Values after ≈ are worked out from the molar mass of the structure shown. Read-outs that look alike come from different tables or passages of the source.

Legend:
[1] = biological target: T1, full-length beta-Catenin (Uniprot ID P35222) (Homo sapiens, UniProt P35222); assay: Fluorescence polarization IC50 (beta-catenin / 5FAM-TCF4 10-53 competition); type: binding; conditions: read-out: beta-Catenin FP IC50
T1 construct: 10 nM full-length beta-Catenin (Uniprot ID P35222)
T1 sequence (P35222 1-781): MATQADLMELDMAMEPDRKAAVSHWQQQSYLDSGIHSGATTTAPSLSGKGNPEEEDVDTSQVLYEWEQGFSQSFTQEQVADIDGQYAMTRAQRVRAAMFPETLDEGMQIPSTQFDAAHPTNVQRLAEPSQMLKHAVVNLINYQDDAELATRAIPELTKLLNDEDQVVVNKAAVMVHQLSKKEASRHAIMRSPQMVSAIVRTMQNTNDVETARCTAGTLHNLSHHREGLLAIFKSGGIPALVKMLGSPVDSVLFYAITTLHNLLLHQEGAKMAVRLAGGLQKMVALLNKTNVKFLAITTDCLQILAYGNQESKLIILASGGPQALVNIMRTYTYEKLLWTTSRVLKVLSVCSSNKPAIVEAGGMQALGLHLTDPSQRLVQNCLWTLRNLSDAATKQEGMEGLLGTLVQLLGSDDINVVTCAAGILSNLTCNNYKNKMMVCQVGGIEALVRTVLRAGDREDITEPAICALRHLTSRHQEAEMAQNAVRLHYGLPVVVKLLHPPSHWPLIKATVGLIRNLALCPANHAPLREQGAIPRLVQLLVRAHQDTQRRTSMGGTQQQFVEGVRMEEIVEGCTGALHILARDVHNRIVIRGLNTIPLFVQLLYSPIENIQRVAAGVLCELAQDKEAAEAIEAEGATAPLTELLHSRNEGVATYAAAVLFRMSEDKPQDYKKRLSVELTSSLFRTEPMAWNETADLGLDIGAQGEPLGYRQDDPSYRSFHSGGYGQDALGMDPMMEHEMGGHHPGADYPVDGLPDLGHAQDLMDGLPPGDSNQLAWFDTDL

[2] = CHI Log D procedure; type: physicochemical; conditions: pH 7.4, CHI Log D
[3] = Solubility in PBS; type: physicochemical
In short: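 Read-out is the HPLC peak area of the supernatant from ultracentrifuged PBS solution, scaled against a 50 μM peptide DMSO injection; value reported as [(PBS area)/(DMSO area)]*50 uM.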

[4] = biological target: T2, beta-catenin/TCF4 engagement (Homo sapiens, UniProt P35222); assay: Nano-BRET target engagement assay (B-cat-Halo & TCF4-Luc in HEK293 cells); type: cell-based; conditions: read-out: NanoBRET Abs IC50
T2 construct: expressed in transfected cells; host or cells: HEK293
T2 sequence (P35222 1-781): T1 sequence (P35222 1-781)

| Structure (SMILES) | IC50 [1] [nM] | chromatographic logD [2] | Solubility [3] [µM] | IC50 [4] [nM] | Solubility ([3]; Solubility (uM)) [µM] | IC50 ([4]; absolute IC50) [nM] |
| --- | --- | --- | --- | --- | --- | --- |
| CC(=O)N1CCC[C@]12CC=CCCCC1(CCCC=CCCCOC(=O)N3CC[C@@](C(=O)N[C@@H](Cc4ccccc4Cl)C(=O)N[C@@H](Cc4csc5ccccc45)C(=O)N[C@@H](CCC(N)=O)C(N)=O)(C3)NC(=O)[C@H](CC(C)C)NC(=O)[C@H](Cc3ccccc3)NC(=O)[C@H](C)NC(=O)[C@H](C)NC(=O)[C@H](CC(=O)O)NC(=O)[C@H](CC(=O)O)NC1=O)NC(=O)[C@H](Cc1cccc3ccccc13)NC(=O)[C@H](CC(=O)O)NC2=O (stereo partly drawn) [I-1110, Ac-PL3-Asp-1NapA-B5-Asp-Asp-Ala-Ala-Phe-Leu-PyrS2-2C1F-BztA-Gln-NH2] | 38 | 2.37 | 10 (≈ 20.2 µg/mL) | > 20000 |  |  |
| CC(=O)N1CCC[C@]12CC=CCCCC1(CCCC=CCCCOC(=O)N3CC[C@@](C(=O)N[C@@H](Cc4ccccc4Cl)C(=O)N[C@@H](Cc4csc5ccccc45)C(=O)N[C@@H](CCC(N)=O)C(N)=O)(C3)NC(=O)[C@H](CC(C)C)NC(=O)[C@H](Cc3ccccc3)NC(=O)[C@H](C)NC(=O)[C@H](C)NC(=O)[C@H](CC(=O)O)NC(=O)[C@H](CC(=O)O)NC1=O)NC(=O)[C@H](Cc1ccc3ccccc3c1)NC(=O)[C@H](CC(=O)O)NC2=O (stereo partly drawn) [I-1111, Ac-PL3-Asp-2NapA-B5-Asp-Asp-Ala-Ala-Phe-Leu-PyrS2-2C1F-BztA-Gln-NH2] | 28 | 2.36 | 10 (≈ 20.2 µg/mL) | > 20000 |  |  |
| CC(=O)N1CCC[C@]12CC=CCCCC1(CCCC=CCCCOC(=O)N3CC[C@@](C(=O)N[C@@H](Cc4ccccc4Cl)C(=O)N[C@@H](Cc4csc5ccccc45)C(=O)N[C@@H](CO)C(N)=O)(C3)NC(=O)[C@H]([C@@H](C)O)NC(=O)[C@H](Cc3ccccc3)NC(=O)[C@H](C)NC(=O)[C@H](C)NC(=O)[C@H](CC(=O)O)NC(=O)[C@H](CC(=O)O)NC1=O)NC(=O)[C@H](Cc1cccc3ccccc13)NC(=O)[C@H](CC(=O)O)NC2=O (stereo partly drawn) [I-1114, Ac-PL3-Asp-1NapA-B5-Asp-Asp-Ala-Ala-Phe-Thr-PyrS2-2C1F-BztA-Ser-NH2] | 20 | 2.49 |  | > 20000 | 28 (≈ 55 µg/mL) |  |
| CC(=O)N1CCC[C@]12CC=CCCCC1(CCCC=CCCCOC(=O)N3CC[C@@](C(=O)N[C@@H](Cc4ccccc4Cl)C(=O)N[C@@H](Cc4csc5ccccc45)C(=O)N[C@@H](CO)C(N)=O)(C3)NC(=O)[C@H]([C@@H](C)O)NC(=O)[C@H](Cc3ccccc3)NC(=O)[C@H](C)NC(=O)[C@H](C)NC(=O)[C@H](CC(=O)O)NC(=O)[C@H](CC(=O)O)NC1=O)NC(=O)[C@H](Cc1ccc3ccccc3c1)NC(=O)[C@H](CC(=O)O)NC2=O (stereo partly drawn) [I-1115, Ac-PL3-Asp-2NapA-B5-Asp-Asp-Ala-Ala-Phe-Thr-PyrS2-2C1F-BztA-Ser-NH2] | 28 | 2.5 |  | 24300 | 32 (≈ 62.8 µg/mL) |  |
| COc1cccc(C[C@@H]2NC(=O)[C@H](C)NC(=O)[C@H](C)NC(=O)[C@H](CC(=O)O)NC(=O)[C@H](CC(=O)O)NC(=O)C3(CCCC=CCCCOC(=O)N4CC[C@@](C(=O)N[C@@H](Cc5ccccc5Cl)C(=O)N[C@@H](Cc5csc6ccccc56)C(=O)N[C@@H](CCC(N)=O)C(N)=O)(C4)NC(=O)[C@H](CO)NC2=O)CCCC=CC[C@]2(CCCN2C(C)=O)C(=O)N[C@@H](CC(=O)O)C(=O)N[C@@H](CC2CCCCC2)C(=O)N3)c1 (stereo partly drawn) [I-1118, Ac-PL3-Asp-Cha-B5-Asp-Asp-Ala-Ala-3OMeF-Ser-PyrS2-2C1F-BztA-Gln-NH2] | 24 | 2.34 |  | 29500 | 37 (≈ 73.1 µg/mL) |  |
| CC(=O)N1CCC[C@]12CC=CCCCC1(CCCC=CCCCOC(=O)N3CC[C@@](C(=O)N[C@@H](Cc4ccccc4Cl)C(=O)N[C@@H](Cc4csc5ccccc45)C(=O)N[C@@H](CCC(N)=O)C(N)=O)(C3)NC(=O)[C@H](CO)NC(=O)[C@H](Cc3cccc(C(F)(F)F)c3)NC(=O)[C@H](C)NC(=O)[C@H](C)NC(=O)[C@H](CC(=O)O)NC(=O)[C@H](CC(=O)O)NC1=O)NC(=O)[C@H](CC1CCCCC1)NC(=O)[C@H](CC(=O)O)NC2=O (stereo partly drawn) [I-1119, Ac-PL3-Asp-Cha-B5-Asp-Asp-Ala-Ala-3F3MeF-Ser-PyrS2-2C1F-BztA-Gln-NH2] | 26 | 2.51 |  | 19400 | 31 (≈ 62.4 µg/mL) |  |
| CC(=O)N1CCC[C@]12CC=CCCCC1(CCCC=CCCCOC(=O)N3CC[C@@](C(=O)N[C@@H](Cc4ccccc4Cl)C(=O)N[C@@H](Cc4csc5ccccc45)C(=O)N[C@@H](CCC(N)=O)C(N)=O)(C3)NC(=O)[C@H](CO)NC(=O)[C@H](Cc3ccc(C(F)(F)F)cc3)NC(=O)[C@H](C)NC(=O)[C@H](C)NC(=O)[C@H](CC(=O)O)NC(=O)[C@H](CC(=O)O)NC1=O)NC(=O)[C@H](CC1CCCCC1)NC(=O)[C@H](CC(=O)O)NC2=O (stereo partly drawn) [I-1120, Ac-PL3-Asp-Cha-B5-Asp-Asp-Ala-Ala-4F3MeF-Ser-PyrS2-2C1F-BztA-Gln-NH2] | 85 | 2.54 |  | > 20000 | 41 (≈ 82.6 µg/mL) |  |
| COc1cccc(C[C@@H]2NC(=O)[C@H](C)NC(=O)[C@H](C)NC(=O)[C@H](CC(=O)O)NC(=O)[C@H](CC(=O)O)NC(=O)C3(CCCC=CCCCOC(=O)N4CC[C@@](C(=O)N[C@@H](Cc5ccccc5Cl)C(=O)N[C@@H](Cc5csc6ccccc56)C(=O)N[C@@H](CCC(N)=O)C(N)=O)(C4)NC(=O)[C@H](CC(C)C)NC2=O)CCCC=CC[C@]2(CCCN2C(C)=O)C(=O)N[C@@H](CC(=O)O)C(=O)N[C@@H](CC(C)(C)C)C(=O)N3)c1 (stereo partly drawn) [I-1121, Ac-PL3-Asp-Npg-B5-Asp-Asp-Ala-Ala-3OMeF-Leu-PyrS2-2C1F-BztA-Gln-NH2] | 18 | 2.31 |  | 9200 | 41 (≈ 81 µg/mL) |  |
| CC(=O)N1CCC[C@]12CC=CCCCC1(CCCC=CCCCOC(=O)N3CC[C@@](C(=O)N[C@@H](Cc4ccccc4Cl)C(=O)N[C@@H](Cc4csc5ccccc45)C(=O)N[C@@H](CCC(N)=O)C(N)=O)(C3)NC(=O)[C@H](CC(C)C)NC(=O)[C@H](Cc3cccc(C(F)(F)F)c3)NC(=O)[C@H](C)NC(=O)[C@H](C)NC(=O)[C@H](CC(=O)O)NC(=O)[C@H](CC(=O)O)NC1=O)NC(=O)[C@H](CC(C)(C)C)NC(=O)[C@H](CC(=O)O)NC2=O (stereo partly drawn) [I-1122, Ac-PL3-Asp-Npg-B5-Asp-Asp-Ala-Ala-3F3MeF-Leu-PyrS2-2C1F-BztA-Gln-NH2] | 34 | 2.41 |  | 12300 | 14 (≈ 28.2 µg/mL) |  |
| CC(=O)N1CCC[C@]12CC=CCCCC1(CCCC=CCCCOC(=O)N3CC[C@@](C(=O)N[C@@H](Cc4ccccc4Cl)C(=O)N[C@@H](Cc4csc5ccccc45)C(=O)N[C@@H](CCC(N)=O)C(N)=O)(C3)NC(=O)[C@H](CC(C)C)NC(=O)[C@H](Cc3ccc(C(F)(F)F)cc3)NC(=O)[C@H](C)NC(=O)[C@H](C)NC(=O)[C@H](CC(=O)O)NC(=O)[C@H](CC(=O)O)NC1=O)NC(=O)[C@H](CC(C)(C)C)NC(=O)[C@H](CC(=O)O)NC2=O (stereo partly drawn) [I-1123, Ac-PL3-Asp-Npg-B5-Asp-Asp-Ala-Ala-4F3MeF-Leu-PyrS2-2C1F-BztA-Gln-NH2] | 64 | 2.46 |  | 28500 | 12 (≈ 24.2 µg/mL) |  |
| COc1cccc(C[C@@H]2NC(=O)[C@H](C)NC(=O)[C@H](C)NC(=O)[C@H](CC(=O)O)NC(=O)[C@H](CC(=O)O)NC(=O)C3(CCCC=CCCCOC(=O)N4CC[C@@](C(=O)N[C@@H](Cc5ccccc5)C(=O)N[C@@H](Cc5csc6ccccc56)C(=O)N[C@@H](CCC(N)=O)C(N)=O)(C4)NC(=O)[C@H](CO)NC2=O)CCCC=CC[C@]2(CCCN2C(C)=O)C(=O)N[C@@H](CC(=O)O)C(=O)N[C@@H](CC2CCCCC2)C(=O)N3)c1 (stereo partly drawn) [I-1124, Ac-PL3-Asp-Cha-B5-Asp-Asp-Ala-Ala-3OMeF-Ser-PyrS2-Phe-BztA-Gln-NH2] | 12 | 2.22 |  |  | 47 (≈ 91.2 µg/mL) | > 20000 |
